Data reported in PMC9516332 (Frontiers in Oncology, 2022).
Read-outs that look alike come from different tables or passages of the source.

Columns and labels:
Test in all cases: Kinase panel profiling at 1 µmol/L (MSA or IMAP), percentage inhibition
Type in all cases: biochemical
[1] = target: panel of 255 wild-type kinases (Homo sapiens, UniProt P17612); details: read-out: %-inhibition at 1 µmol/L, PKACα
[2] = target: panel of 255 wild-type kinases (Homo sapiens, UniProt P07947); details: read-out: %-inhibition at 1 µmol/L, YES
[3] = target: panel of 255 wild-type kinases (Homo sapiens, UniProt Q15418); details: read-out: %-inhibition at 1 µmol/L, RSK1
[4] = target: panel of 255 wild-type kinases (Homo sapiens, UniProt Q00535); details: read-out: %-inhibition CDK5/p25
[5] = target: T1, panel of 255 wild-type kinases (Homo sapiens, UniProt P54753); details: read-out: %-inhibition at 1 µmol/L, EPHB3
T1 sequence (P54753 34-998): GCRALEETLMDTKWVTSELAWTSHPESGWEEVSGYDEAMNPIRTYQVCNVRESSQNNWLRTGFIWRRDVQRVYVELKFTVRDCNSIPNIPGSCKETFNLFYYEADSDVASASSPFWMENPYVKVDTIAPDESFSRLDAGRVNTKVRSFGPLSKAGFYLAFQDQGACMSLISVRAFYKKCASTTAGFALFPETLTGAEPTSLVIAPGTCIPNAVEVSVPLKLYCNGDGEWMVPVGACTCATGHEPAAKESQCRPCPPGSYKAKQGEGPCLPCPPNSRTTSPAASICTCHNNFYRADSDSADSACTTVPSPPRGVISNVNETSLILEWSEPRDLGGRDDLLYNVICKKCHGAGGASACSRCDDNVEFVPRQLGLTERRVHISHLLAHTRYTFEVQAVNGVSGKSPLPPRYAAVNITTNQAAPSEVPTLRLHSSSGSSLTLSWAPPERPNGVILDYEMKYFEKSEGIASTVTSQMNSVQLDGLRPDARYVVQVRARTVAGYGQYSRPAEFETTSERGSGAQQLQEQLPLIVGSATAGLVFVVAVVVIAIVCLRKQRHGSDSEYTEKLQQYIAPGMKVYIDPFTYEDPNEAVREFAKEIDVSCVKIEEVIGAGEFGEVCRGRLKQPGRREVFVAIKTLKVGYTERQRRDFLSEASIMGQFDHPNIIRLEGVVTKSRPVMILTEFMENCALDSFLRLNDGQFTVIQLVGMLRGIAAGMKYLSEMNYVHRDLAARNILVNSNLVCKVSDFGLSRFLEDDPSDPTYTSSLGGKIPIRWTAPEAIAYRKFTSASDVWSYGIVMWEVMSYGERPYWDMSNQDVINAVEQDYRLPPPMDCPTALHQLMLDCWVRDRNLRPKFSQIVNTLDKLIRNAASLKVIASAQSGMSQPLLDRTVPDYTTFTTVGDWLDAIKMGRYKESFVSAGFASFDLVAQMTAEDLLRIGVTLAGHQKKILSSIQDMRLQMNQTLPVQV

[6] = target: T2, panel of 255 wild-type kinases (Homo sapiens, UniProt P53778); details: read-out: %-inhibition, p38γ
T2 sequence (P53778 1-367): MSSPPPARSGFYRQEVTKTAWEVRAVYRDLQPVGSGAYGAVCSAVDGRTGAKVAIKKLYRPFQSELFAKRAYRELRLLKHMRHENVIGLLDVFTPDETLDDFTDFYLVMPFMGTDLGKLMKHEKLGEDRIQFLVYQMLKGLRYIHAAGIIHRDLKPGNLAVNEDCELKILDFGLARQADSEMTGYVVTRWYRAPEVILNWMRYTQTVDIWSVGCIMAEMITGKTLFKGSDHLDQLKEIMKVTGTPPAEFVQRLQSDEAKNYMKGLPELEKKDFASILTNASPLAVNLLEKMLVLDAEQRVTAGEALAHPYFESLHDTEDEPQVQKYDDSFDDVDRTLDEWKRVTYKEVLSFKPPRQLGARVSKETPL

[7] = target: panel of 255 wild-type kinases (Homo sapiens, UniProt Q9Y6M4); details: read-out: %-inhibition at 1 µmol/L, CK1γ3
[8] = target: panel of 255 wild-type kinases (Homo sapiens, UniProt P51812); details: read-out: %-inhibition at 1 µmol/L, RSK2
[9] = target: panel of 255 wild-type kinases (Homo sapiens, UniProt Q13882); details: read-out: %-inhibition BRK
[10] = kinase PKACα, 1 µmol/L single concentration
[11] = kinase YES, 1 µmol/L single concentration
[12] = kinase RSK1, 1 µmol/L single concentration
[13] = CDK5/p25 kinase assay, 1 µmol/L single concentration
[14] = kinase EPHB3, 1 µmol/L single concentration
[15] = p38γ, 1 µmol/L single concentration
[16] = kinase CK1γ3, 1 µmol/L single concentration
[17] = kinase RSK2, 1 µmol/L single concentration
[18] = BRK kinase assay, 1 µmol/L single concentration

SMILES | inhibition at 1 µM [1, 10] [%] | inhibition at 1 µM [2, 11] [%] | inhibition at 1 µM [3, 12] [%] | inhibition at 1 µM [4, 13] [%] | inhibition at 1 µM [5, 14] [%] | inhibition at 1 µM [6, 15] [%] | inhibition at 1 µM [7, 16] [%] | inhibition at 1 µM [8, 17] [%] | inhibition at 1 µM [9, 18] [%] | inhibition at 1 µM [1] [%] | inhibition at 1 µM [2] [%] | inhibition at 1 µM [3] [%] | inhibition at 1 µM [4] [%] | inhibition at 1 µM [5] [%] | inhibition at 1 µM [6] [%] | inhibition at 1 µM [7] [%] | inhibition at 1 µM [8] [%] | inhibition at 1 µM [9] [%]
Cc1nc(NC(=O)N2CCC[C@H]2C(N)=O)sc1-c1ccnc(C(C)(C)C(F)(F)F)c1 [alpelisib] | -13 | -4 | -0.527 | -14 | -0.582 | -6 | -2 | -1.78 | 2.75 |  |  |  |  |  |  |  |  | 
Cn1cc(-c2cc3c(N4CCN(c5ncc([C@@](C)(N)c6ccc(F)cc6)cn5)CC4)ncnn3c2)cn1 [avapritinib] | -20 | 83 | -7 | 11 | 3 | -0.867 | 10 | 2.57 | 0.682 |  |  |  |  |  |  |  |  | 
Cn1cnc2c(F)c(Nc3ccc(Br)cc3F)c(C(=O)NOCCO)cc21 [binimetinib] | -12 | 2.16 | -5.55 | -21 | 3.28 | 2 | 2.67 | 0.103 | 1.08 |  |  |  |  |  |  |  |  | 
CNC(=O)c1ccc(-c2cnc3ncc(Cc4ccc5ncccc5c4)n3n2)cc1F [capmatinib] |  |  |  |  |  |  |  |  |  | -28 | 1.32 | 1.52 | -20 | 0.192 | -1.26 | -1.65 | -3 | -0.67
COc1cc2ncnc(Nc3ccc(F)c(Cl)c3)c2cc1NC(=O)/C=C/CN1CCCCC1 [dacomitinib] | -11 |  | 4.37 | -29 | 2 | 0.231 | -23 | 8 | 53 |  |  |  |  |  |  |  |  | 
C[C@H](Nc1ncnc2nc[nH]c12)c1cc2cccc(Cl)c2c(=O)n1-c1ccccc1 [duvelisib] | -7.56 | -2.44 | -0.755 | -11 | 4 | -4 | -0.689 | -3.62 | 4.54 |  |  |  |  |  |  |  |  | 
COC(=O)N[C@@H](C)CNc1nccc(-c2cn(C(C)C)nc2-c2cc(Cl)cc(NS(C)(=O)=O)c2F)n1 [encorafenib] | -10 | 3.55 | -2 | -17 | 4 | 3.2 | 10 | 3.78 | 25 |  |  |  |  |  |  |  |  | 
CN1CCN(c2ccc(C(=O)Nc3n[nH]c4ccc(Cc5cc(F)cc(F)c5)cc34)c(NC3CCOCC3)c2)CC1 [entrectinib] | -7 | 98 |  |  | 8 | -3 | 0.879 |  | 88 |  |  |  |  |  |  |  |  | 
CCc1nc(C(N)=O)c(Nc2ccc(N3CCC(N4CCN(C)CC4)CC3)c(OC)c2)nc1NC1CCOCC1 [gilteritinib] |  | 98 | 54 | 25 | 8 | -0.507 | 11 | 48 | 98 | 7 |  |  |  |  |  |  |  | 
CCN1CCN(c2ccc(Nc3cc(N(C)C(=O)Nc4c(Cl)c(OC)cc(OC)c4Cl)ncn3)cc2)CC1 [infigratinib] | -28 | 77 | -3 | -17 | -1 | -3 | -1.16 | -7 | 5.46 |  |  |  |  |  |  |  |  | 
O=C(Nc1cnn2ccc(N3CCC[C@@H]3c3cc(F)ccc3F)nc12)N1CC[C@H](O)C1 [larotrectinib] | -20 | -2.66 | -3.46 | -22 | -0.506 | 2.3 | -0.832 | -7.4 | 4.64 |  |  |  |  |  |  |  |  | 
C[C@H]1Oc2cc(cnc2N)-c2c(nn(C)c2C#N)CN(C)C(=O)c2ccc(F)cc21 [lorlatinib] | -8 | 28 | 2.31 | -9 | 13 | -4.48 | -1 | -0.881 | 63 |  |  |  |  |  |  |  |  | 
CCN1C(=O)N(c2c(F)c(OC)cc(OC)c2F)Cc2cnc3[nH]c(CN4CCOCC4)cc3c21 [pemigatinib] | -9 | 24 | -1.79 | -12 | -2.52 | 1.73 | -1.18 | -5 | 11 |  |  |  |  |  |  |  |  | 
FC(F)(F)c1ccc(CNc2ccc(Cc3c[nH]c4ncc(Cl)cc34)cn2)cn1 [pexidartinib] | -7 | 16 | 7.43 | -21 | -7 | 2.47 | -0.557 | 14 | 15 |  |  |  |  |  |  |  |  | 
CO[C@]1(C(=O)N[C@@H](C)c2ccc(-n3cc(F)cn3)nc2)CC[C@H](c2nc(C)cc(Nc3cc(C)[nH]n3)n2)CC1 [pralsetinib] | 16 | 95 | 26 | 43 | -0.435 | -1.77 | 0.449 | 23 | 49 |  |  |  |  |  |  |  |  | 
CCn1c(=O)c(-c2cc(NC(=O)Nc3ccccc3)c(F)cc2Br)cc2cnc(NC)cc21 [ripretinib] | -16 | 81 | 8 | -19 | 59 | 0.893 | -8 | 3.31 | 36 |  |  |  |  |  |  |  |  | 
C=CC(=O)N1CCC([C@@H]2CCNc3c(C(N)=O)c(-c4ccc(Oc5ccccc5)cc4)nn32)CC1 [zanubrutinib] | -13 |  | -2.79 | -17 | -1.32 | 4 | -0.464 | -6 | 99 |  |  |  |  |  |  |  |  | 
